Laboratory results: patent US12319648B2, “Fluorinated phenylacetic acid derivatives in a weed control method” (SYNGENTA CROP PROTECTION AG, priority 2019, dated 2025)

How the values were obtained:
Type in all cases: in vivo
[1] = tested on: Amaranthus retoflexus (AMARE); assay: Post-emergence herbicidal glasshouse test; settings: post-emergence, 250 g/ha, 13 days after application
Protocol: (§1) Seeds of a variety of test species are shown in standard soil in pots Amaranthus retoflexus (AMARE), Ipomoea hederacea (IPOHE), Solanum nigrum (SOLNI), Lolium perenne (LOLPE). Echinochloa crus-galli (ECHCG), Setaria faberi (SETFA)). After cultivation for one day (pre-emergence) or after 8 days cultivation (post-emergence) under controlled conditions in a glasshouse (at 24/16° C., day/night; 14 hours light; 65% humidity), the plants are sprayed with an aqueous spray solution derived from the formulation of the technical active ingredient in acetone/water (50:50) solution containing 0.5% Tween 20 (polyoxyethylene sorbitan monolaurate, CAS RN 9005-64-5). Compounds are applied at 250 g/ha unless otherwise stated. The test plants are then grown in a glasshouse under controlled conditions in a glasshouse (at 24/16° C., day/night; 14 hours light; 65% humidity) and watered twice daily. After 13 days for pre and post-emergence, the test is evaluated for the percentage damage caused to the plant. The biological activities are shown in the following table on a five-point scale (5=81-100%; 4=61-80%; 3=41-60%; 2=21-40%; 1=0-20%).
(§2) Using the experimental conditions outlined above, a further test is conducted to compare the herbicidal properties of the difluro containing compound (1.014) with a representative compound (C1) referred to in GB901553. The compounds are applied at 1000 g/ha and 500 g/ha. The test is evaluated for the percentage damage caused to the plant (% phytotoxicity).

[2] = tested on: Echinochloa crus-galli (ECHCG); assay: Post-emergence herbicidal glasshouse test; settings: post-emergence, 250 g/ha, 13 days after application
Protocol: as §1, §2

[3] = tested on: Ipomoea hederacea (IPOHE); assay: Post-emergence herbicidal glasshouse test; settings: post-emergence, 250 g/ha, 13 days after application
Protocol: as §1, §2

Lolium perenne (LOLPE) [4] = assay: Post-emergence herbicidal glasshouse test; settings: post-emergence, 250 g/ha, 13 days after application
Protocol: as §1, §2

Setaria faberi (SETFA) [5] = assay: Post-emergence herbicidal glasshouse test; settings: post-emergence, 250 g/ha, 13 days after application
Protocol: as §1, §2

Solanum nigrum (SOLNI) [6] = assay: Post-emergence herbicidal glasshouse test; settings: post-emergence, 250 g/ha, 13 days after application
Protocol: as §1, §2

[7] = tested on: Amaranthus retoflexus (AMARE); assay: Pre-emergence herbicidal glasshouse test; settings: pre-emergence, 250 g/ha, 13 days after application
Protocol: as §1, §2

[8] = tested on: Echinochloa crus-galli (ECHCG); assay: Pre-emergence herbicidal glasshouse test; settings: pre-emergence, 250 g/ha, 13 days after application
Protocol: as §1, §2

[9] = tested on: Ipomoea hederacea (IPOHE); assay: Pre-emergence herbicidal glasshouse test; settings: pre-emergence, 250 g/ha, 13 days after application
Protocol: as §1, §2

Lolium perenne (LOLPE) [10] = assay: Pre-emergence herbicidal glasshouse test; settings: pre-emergence, 250 g/ha, 13 days after application
Protocol: as §1, §2

Setaria faberi (SETFA) [11] = assay: Pre-emergence herbicidal glasshouse test; settings: pre-emergence, 250 g/ha, 13 days after application
Protocol: as §1, §2

Solanum nigrum (SOLNI) [12] = assay: Pre-emergence herbicidal glasshouse test; settings: pre-emergence, 250 g/ha, 13 days after application
Protocol: as §1, §2

| SMILES | percentage damage caused to the plant, five-point scale, AMARE [1] | percentage damage caused to the plant, five-point scale, ECHCG [2] | percentage damage caused to the plant, five-point scale, IPOHE [3] | percentage damage caused to the plant, five-point scale, LOLPE (Lolium perenne (LOLPE) [4]) | percentage damage caused to the plant, five-point scale, SETFA (Setaria faberi (SETFA) [5]) | percentage damage caused to the plant, five-point scale, SOLNI (Solanum nigrum (SOLNI) [6]) | percentage damage caused to the plant, five-point scale, AMARE [7] | percentage damage caused to the plant, five-point scale, ECHCG [8] | percentage damage caused to the plant, five-point scale, IPOHE [9] | percentage damage caused to the plant, five-point scale, LOLPE (Lolium perenne (LOLPE) [10]) | percentage damage caused to the plant, five-point scale, SETFA (Setaria faberi (SETFA) [11]) | percentage damage caused to the plant, five-point scale, SOLNI (Solanum nigrum (SOLNI) [12]) |
| --- | --- | --- | --- | --- | --- | --- | --- | --- | --- | --- | --- | --- |
| O=C(O)C(F)(F)c1c(Cl)ccc(Cl)c1Cl [Compound 1.001] | 5 (5=81-100%) | 1 (1=0-20%) | 4 (4=61-80%) | 1 (1=0-20%) | 3 (3=41-60%) | 4 (4=61-80%) | 5 (5=81-100%) | 1 (1=0-20%) | 3 (3=41-60%) | 1 (1=0-20%) | 1 (1=0-20%) | 1 (1=0-20%) |
| COC(=O)C(F)(F)c1c(Cl)ccc(Cl)c1Cl [Compound 1.002] | 4 (4=61-80%) | 1 (1=0-20%) | 2 (2=21-40%) | 1 (1=0-20%) | 1 (1=0-20%) | 4 (4=61-80%) | 4 (4=61-80%) | 1 (1=0-20%) | 1 (1=0-20%) | 1 (1=0-20%) | 1 (1=0-20%) | 1 (1=0-20%) |
| COC(=O)C(F)(F)c1ccc(Cl)cc1Cl [Compound 1.003] | 3 (3=41-60%) | 1 (1=0-20%) | 3 (3=41-60%) | 1 (1=0-20%) | 1 (1=0-20%) | 3 (3=41-60%) | 4 (4=61-80%) | 1 (1=0-20%) | 3 (3=41-60%) | 1 (1=0-20%) | 1 (1=0-20%) | 2 (2=21-40%) |
| O=C(O)C(F)(F)c1ccc(Cl)cc1Cl [Compound 1.004] | 4 (4=61-80%) | 1 (1=0-20%) | 4 (4=61-80%) | 1 (1=0-20%) | 1 (1=0-20%) | 4 (4=61-80%) | 4 (4=61-80%) | 1 (1=0-20%) | 4 (4=61-80%) | 1 (1=0-20%) | 1 (1=0-20%) | 3 (3=41-60%) |
| O=C(O)C(F)(F)c1cc(Cl)cc(Cl)c1 [Compound 1.007] | 3 (3=41-60%) | 1 (1=0-20%) | 1 (1=0-20%) | 1 (1=0-20%) | 1 (1=0-20%) | 3 (3=41-60%) | 1 (1=0-20%) | 1 (1=0-20%) | 1 (1=0-20%) | 1 (1=0-20%) | 1 (1=0-20%) | 1 (1=0-20%) |
| O=C(O)C(F)(F)c1cccc(Cl)c1Cl [Compound 1.034] | 5 (5=81-100%) | 2 (2=21-40%) | 4 (4=61-80%) | 1 (1=0-20%) | 3 (3=41-60%) | 3 (3=41-60%) | – | 2 (2=21-40%) | 5 (5=81-100%) | 2 (2=21-40%) | 1 (1=0-20%) | – |
| O=C([O-])C(F)(F)c1cccc(Cl)c1Cl.[Na+] [Compound 1.038] | 5 (5=81-100%) | 2 (2=21-40%) | 4 (4=61-80%) | 1 (1=0-20%) | 4 (4=61-80%) | 4 (4=61-80%) | – | 1 (1=0-20%) | 5 (5=81-100%) | 2 (2=21-40%) | 3 (3=41-60%) | – |
| O=C(O)C(F)(F)c1cccc(Cl)c1Cl [Compound 1.039] | 5 (5=81-100%) | 2 (2=21-40%) | 4 (4=61-80%) | 1 (1=0-20%) | 3 (3=41-60%) | 3 (3=41-60%) | – | 1 (1=0-20%) | 5 (5=81-100%) | 3 (3=41-60%) | 2 (2=21-40%) | – |
| O=C(O)C(F)(F)c1cccc(Cl)c1Cl [Compound 1.040] | 4 (4=61-80%) | 2 (2=21-40%) | 3 (3=41-60%) | 1 (1=0-20%) | 3 (3=41-60%) | 2 (2=21-40%) | – | 1 (1=0-20%) | 5 (5=81-100%) | 1 (1=0-20%) | 1 (1=0-20%) | – |
| O=C(O)C(F)(F)c1cccc(Cl)c1Cl [Compound 1.041] | – | 4 (4=61-80%) | – | 4 (4=61-80%) | – | 4 (4=61-80%) | – | – | – | – | – | – |
| O=C([O-])C(F)(F)c1cccc(Cl)c1Cl.[K+] [Compound 1.042] | 5 (5=81-100%) | 2 (2=21-40%) | 4 (4=61-80%) | 1 (1=0-20%) | 3 (3=41-60%) | 4 (4=61-80%) | – | 1 (1=0-20%) | 5 (5=81-100%) | 2 (2=21-40%) | – | – |
| Cc1c(F)cccc1C(F)(F)C(=O)O [Compound 1.075] | 5 (5=81-100%) | 1 (1=0-20%) | 4 (4=61-80%) | – | – | – | 3 (3=41-60%) | 1 (1=0-20%) | 3 (3=41-60%) | – | – | – |
| Cc1c(Cl)ccc(Cl)c1C(F)(F)C(=O)O.N [Compound 1.084] | 2 (2=21-40%) | 1 (1=0-20%) | 4 (4=61-80%) | – | – | – | 2 (2=21-40%) | 1 (1=0-20%) | 1 (1=0-20%) | – | – | – |
